The record followed here is patent US20230278972A1, “SUBSTITUTED HALOALKYL SULFONANILIDE HERBICIDES” (FMC Corporation, priority 2020, published 2023).

Format in all cases: in vivo
Test [1] deals with Foxtail, Giant (giant foxtail, Setaria faberi). In words: Test A1 preemergence, Foxtail, Giant. In outline: (§1)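 Herbicidal response was scored on plants treated either preemergence, by directed spray onto soil of a loam–sand blend after sowing, or postemergence on potted plants at the one- to two-leaf stage, 2–10 cm high. Test chemicals were carried in a non-phytotoxic solvent mix with surfactant.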

In another test the test system is kochia (Bassia scoparia). In words: Test A1 preemergence, kochia. The procedure, abridged: as §1
Test [2] relates to Oat, Wild (wild oat, Avena fatua). In words: Test A1 preemergence, Oat, Wild. The procedure, abridged: as §1
The test system of test [3] is wheat (Triticum aestivum). In words: Test A1 postemergence, wheat. The note with it: Postemergence. In outline: as §1
Test [4] has as its system barnyardgrass (Echinochloa crus-galli). In words: Test B1 flooded paddy test, barnyardgrass. The note with it: 250 g ai/ha, Flood, applied to paddy water, 2-leaf stage, visually evaluated after 10 to 14 days. The text has this:
(§2) A dash (-) response means no test result.

Test [5] has as its system ducksalad (Heteranthera limosa). In words: Test B1 flooded paddy test, ducksalad. As to conditions: 250 g ai/ha, Flood, applied to paddy water, 2-leaf stage, visually evaluated after 10 to 14 days.
Excerpt: as §2

Another test relates to rice (Oryza sativa). In words: Test B1 flooded paddy test, rice. The note with it: 250 g ai/ha, Flood, applied to paddy water, 2-leaf stage, visually evaluated after 10 to 14 days.
Excerpt: as §2

Setting [6] is: 31 g ai/ha, 0 to 100 scale (0 no effect, 100 complete control).
Where [7] appears, read: 125 g ai/ha, 0 to 100 scale, 0 no effect, 100 complete control.
[8] abbreviates: 31 g ai/ha, 0 to 100 scale (0 no effect, 100 complete control), 10 days.

Take `CCOC1CC(c2cc(NS(=O)(=O)C(F)(F)F)c(C)cc2C)=NO1` (stereo not drawn) [Compound 318]: the “Plant response rating, Foxtail, Giant” value in test [1] (setting [6]) came out at 30; in test [1] (setting [7]) it was 90. Further, the “Plant response rating, Kochia” value came to 60 with kochia (Bassia scoparia) (setting [6]) and 70 in the test with kochia (Bassia scoparia) (setting [7]). Besides, the “Plant response rating, Oat, Wild” value in test [2] (setting [6]) is recorded as 0; in test [2] (setting [7]) it was 10. For the same compound, the “Plant response rating, Wheat” value in test [3] (setting [8]) is 50; in test [3] (125 g ai/ha, 0 to 100 scale), 70. The “Plant response rating, Barnyardgrass (0 to 100 scale, 0 is no effect, 100 is complete control)” value in test [4] is 95. For the same compound, the “Plant response rating, Ducksalad (0 to 100 scale, 0 is no effect, 100 is complete control)” value in test [5] is on record as 80. Further, in the test with rice (Oryza sativa), the “Plant response rating, Rice (0 to 100 scale, 0 is no effect, 100 is complete control)” value stood at 0.

Take `COCC1CC(c2cc(NS(=O)(=O)C(F)(F)F)c(C)cc2C)=NO1` (stereo not drawn) [Compound 319]: the “Plant response rating, Foxtail, Giant” value in test [1] (setting [6]) amounted to 90; in test [1] (setting [7]), 100. The “Plant response rating, Kochia” value in the test with kochia (Bassia scoparia) (setting [6]) was determined as 0; in the test with kochia (Bassia scoparia) (setting [7]), 40. Also, the “Plant response rating, Oat, Wild” value in test [2] (setting [6]) was determined as 60; in test [2] (setting [7]), 70. For the same compound, the “Plant response rating, Wheat” value worked out at 70 in test [3] (setting [8]) and 70 in test [3] (125 g ai/ha, 0 to 100 scale). In addition, the “Plant response rating, Barnyardgrass (0 to 100 scale, 0 is no effect, 100 is complete control)” value in test [4] amounted to 90. For the same compound, in test [5], the “Plant response rating, Ducksalad (0 to 100 scale, 0 is no effect, 100 is complete control)” value amounted to 85. For the same compound, the “Plant response rating, Rice (0 to 100 scale, 0 is no effect, 100 is complete control)” value in the test with rice (Oryza sativa) is recorded as 30.

In the case of `Cc1c(C(=O)N(C)C)cc(NS(=O)(=O)C(F)(F)F)c(Cl)c1F` [Compound 320], the “Plant response rating, Foxtail, Giant” value in test [1] (setting [6]) is 10; in test [1] (setting [7]) it was 100. In addition, the “Plant response rating, Kochia” value is 20 with kochia (Bassia scoparia) (setting [6]) and 50 in the test on kochia (Bassia scoparia) (setting [7]). For the same compound, the “Plant response rating, Oat, Wild” value in test [2] (setting [6]) and in test [2] (setting [7]) was 0 each time. Also, the “Plant response rating, Wheat” value is recorded as 0 in test [3] (setting [8]) and 30 in test [3] (125 g ai/ha, 0 to 100 scale). The “Plant response rating, Barnyardgrass (0 to 100 scale, 0 is no effect, 100 is complete control)” value in test [4] was found to be 0. Moreover, the “Plant response rating, Ducksalad (0 to 100 scale, 0 is no effect, 100 is complete control)” value in test [5] is on record as 60. Also, in the test on rice (Oryza sativa), the “Plant response rating, Rice (0 to 100 scale, 0 is no effect, 100 is complete control)” value amounted to 0.

Turning to `Cc1c(C(=O)N2CCOCC2)cc(NS(=O)(=O)C(F)(F)F)c(Cl)c1F` [Compound 321], the “Plant response rating, Foxtail, Giant” value in test [1] (setting [6]) stood at 30; in test [1] (setting [7]), 100. Besides, the “Plant response rating, Kochia” value with kochia (Bassia scoparia) (setting [6]) came out at 80; with kochia (Bassia scoparia) (setting [7]) it was 90. In addition, the figures for the “Plant response rating, Oat, Wild” value in test [2] (setting [6]) and in test [2] (setting [7]) were 0 and 50, respectively. Besides, the “Plant response rating, Wheat” value is 0 in test [3] (setting [8]) and 10 in test [3] (125 g ai/ha, 0 to 100 scale). Also, the “Plant response rating, Barnyardgrass (0 to 100 scale, 0 is no effect, 100 is complete control)” value in test [4] came out at 15. Also, in test [5], the “Plant response rating, Ducksalad (0 to 100 scale, 0 is no effect, 100 is complete control)” value came to 95. Besides, the “Plant response rating, Rice (0 to 100 scale, 0 is no effect, 100 is complete control)” value in the test on rice (Oryza sativa) was 10.

Consider `CCCCOC1CC(c2cc(NS(=O)(=O)C(F)(F)F)c(C)cc2C)=NO1` (stereo not drawn) [Compound 323], for which the results for the “Plant response rating, Foxtail, Giant” value in test [1] (setting [6]) and in test [1] (setting [7]) were 50 and 90, respectively. Besides, the “Plant response rating, Kochia” value with kochia (Bassia scoparia) (setting [6]) was found to be 20; with kochia (Bassia scoparia) (setting [7]), 90. Besides, the “Plant response rating, Oat, Wild” value is on record as 20 in test [2] (setting [6]) and 30 in test [2] (setting [7]). Moreover, the “Plant response rating, Wheat” value in test [3] (setting [8]) turned out to be 0; in test [3] (125 g ai/ha, 0 to 100 scale) it was 50. For the same compound, in test [4], the “Plant response rating, Barnyardgrass (0 to 100 scale, 0 is no effect, 100 is complete control)” value came out at 0. For the same compound, the “Plant response rating, Ducksalad (0 to 100 scale, 0 is no effect, 100 is complete control)” value in test [5] was determined as 0. In addition, the “Plant response rating, Rice (0 to 100 scale, 0 is no effect, 100 is complete control)” value in the test on rice (Oryza sativa) was 0.

For the compound `Cc1c(C(=O)N2CCOCC2)cc(N(COC(=O)C(C)(C)C)S(=O)(=O)C(F)(F)F)c(C)c1C` [Compound 324, [[(Trifluoromethyl)sulfonyl][2,3,4-trimethyl-5-(4-morpholinylcarbonyl)phenyl]amino]methyl 2,2-dimethylpropanoate], the “Plant response rating, Foxtail, Giant” value is listed as 90 in test [1] (setting [6]) and 100 in test [1] (setting [7]). Moreover, the “Plant response rating, Kochia” value in the test with kochia (Bassia scoparia) (setting [6]) was 60; with kochia (Bassia scoparia) (setting [7]), 90. The “Plant response rating, Oat, Wild” value in test [2] (setting [6]) is given as 20; in test [2] (setting [7]), 40. The “Plant response rating, Wheat” value in test [3] (setting [8]) is on record as 0; in test [3] (125 g ai/ha, 0 to 100 scale), 30. Moreover, the “Plant response rating, Barnyardgrass (0 to 100 scale, 0 is no effect, 100 is complete control)” value in test [4] is given as 90. Also, the “Plant response rating, Ducksalad (0 to 100 scale, 0 is no effect, 100 is complete control)” value in test [5] is 80. The “Plant response rating, Rice (0 to 100 scale, 0 is no effect, 100 is complete control)” value with rice (Oryza sativa) was determined as 0.
